Results published in a melting point compilation (Tetko et al.; mined from patent text by program, amines drawn as free bases though some values may be those of a salt).

Compound	melting point [°C]
COc1ccc(CCNC(=O)Cc2ccc(-c3ccccc3)cc2)cc1OC	103 to 105
N#Cc1c(O)nsc1S(=O)(=O)c1ccccc1	163 to 164
COc1ccc2c(c1)CCC(CN1CCC(O)(Cc3ccc(C)cc3)CC1)C2 (racemic)	91 to 94
CCOc1cc2c(cc1OCC)C(C(S)(C#N)CCC(=O)O)=NCC2 (centres undefined)	106 to 108
CCCCC(=O)N(CCCCO)Cc1ccc(-c2ccccc2-c2nnn[nH]2)cc1	110 to 111
c1ccc(-c2ccnc3ncnn23)cc1	140
COc1cc(Nc2nccc(-c3cccc4ccccc34)n2)cc(OC)c1OC	130 to 133
CCn1cc(C(=O)NCCc2ccncc2)c(=O)c2cc(F)cc(C)c21	243 to 245
NCCc1cccc(N2C(=O)N(c3cc(Cl)ccc3Cl)Cc3cnc(Nc4ccccc4)nc32)c1	120 to 123
COCc1c(C(=O)OC(C)(C)C)ncc2[nH]c3ccc(OCc4ccccc4)cc3c12	160 to 167
COc1ccc(Oc2cccc(CCN(C)CCN(O)C(N)=O)c2)cc1	87 to 88.5
O=C(Nc1ccccc1)c1ccc(Cn2cnc3ccccc32)cc1	214 to 216
C#CC1(O)C=CC2C3CCC4=CC(=O)CC(O)C4C3CCC21CC (centres undefined)	129 to 130
Cc1nc(Cl)c2c(c1O)COC2(C)C	251
O=C(Nc1ccc(-n2ncn(-c3ccc(OCC(F)(F)C(F)F)cc3)c2=O)cc1)Oc1ccccc1	204 to 206
FC(F)(F)c1nc(-c2ccc(Cl)cc2)c(-c2ccc(Cl)cc2)s1	101 to 102
CCOC(=O)c1cnc2c(I)cc(COC(C)=O)cc2c1O	119 to 123
O=S1N=C(NCCCOc2cccc(CN3CCCCC3)c2)C(NCc2cccnc2)=N1 (centres undefined)	140 to 143
CSc1cccc(COCCCn2ccnc2)c1NC(=O)CC1c2ccccc2Oc2ccccc21	176 to 177
O=C(OCC1CC1)c1ncn2c1[C@@H]1CCN1C(=O)c1c(I)cccc1-2	190 to 191
Cc1cc2ccccc2n1-c1ccc(F)cc1	43
Cn1cc(-c2cc3nccnc3[nH]2)c2cc(C(=O)O)ccc21	350
CCN(c1cccc2cc(C(=O)NCCSC(c3ccccc3)(c3ccccc3)c3ccccc3)[nH]c12)S(=O)(=O)c1cccs1	58 to 61
Cc1cc(OC=CCC(F)(F)F)nc(Oc2cc(C(F)(F)F)nn2C)c1	56
CCCc1ccc2nc(COc3ccc(F)c(C(N)=O)c3F)sc2c1	173 to 175

Compound	melting point [°C]
Cc1cc(-n2cncn2)c2cccc(OCc3c(Cl)ccc(S(=O)(=O)N4CCC[C@H]4C(=O)NCC4CCN(Cc5ccccn5)CC4)c3Cl)c2n1	118
NCC(=O)N(O)Cc1ccccc1	142 to 143
Clc1ccc(/C=C/C2=CCN(Cc3ccccc3)CC2)cn1	126 to 128
CC(=O)Nc1nc(C)n2c1CN=C(c1ccccc1F)c1cc(Cl)ccc1-2	175 to 178
CCOC(=O)CC(=O)c1cc(F)c(Cl)cc1Cl	44 to 45
O=C(Oc1ccccc1)N1CCC2(CC1)SC(c1cccc(F)c1)c1ccccc12 (centres undefined)	134 to 142
Cc1cccc(N2CCN(CCc3c(C)nc4ccc(C)cn4c3=O)CC2)c1	115 to 116
CCOC(=O)Cn1c(=O)[nH]c(=O)c2cc(Cl)c(Cl)cc21	> 280
CC(=O)NCC1CN(c2ccc(N3CCN(C(=O)COC(C)=O)CC3)c(F)c2)C(=O)O1 (centres undefined)	199 to 201
O=C1c2ccccc2CN1C1CCN(CCC2c3ccccc3-c3ccccc32)CC1	65 to 68
CCOC(=O)Cc1cc(Br)c(C(=O)c2ccc(C)cc2)n1C	85 to 87
CCNc1cc(C)c(S(=O)(=O)C[N+](=O)[O-])c(C)c1	143
CCOn1c(CC)n[nH]c1=O	93
CON=C(c1ccc(Cl)cc1)C(CNOC)CN1CCN(c2ccccn2)CC1 (centres undefined)	106 to 109
CC(=O)Oc1ccc(-n2c(-c3ccccc3)cc3ccccc32)cc1C(=O)O	178 to 180
O=C(Nc1ccc2ccc(Cl)nc2n1)c1ccncc1	220
CCCc1cc(O)nc(-c2cccc(Oc3ccccc3Cl)n2)n1	95.1
C#CCNC(=NCCSCc1ccccn1)NC#N	124 to 130
CN(CCCNc1ncc(CCc2ccccc2)c(=O)[nH]1)c1ccccn1	134 to 136
O=C1OCCC1Oc1ccc(C(F)(F)F)cc1 (centres undefined)	84 to 86
CNC(=O)C(=O)CCCCCCS(=O)(=O)c1ccc2ccccc2c1	108 to 109
COC(=O)CCCCNC(=O)C(CS)Cc1ccccc1 (centres undefined)	39 to 41
CCCCN1CC(c2ccccc2)=C(O)C1=O	137 to 139
CCOC(=O)[C@](CC(=O)OC1CC(C)CCC1C(C)C)(NC(=O)OCc1ccccc1)C(N)=O (some centres undefined)	124
Cn1cc(C2=C(c3c4n(c5ccccc35)CCN(C(=O)OC(C)(C)C)C4)C(=O)OC2=O)c2ccccc21	125 to 127

Compound	melting point [°C]
Cc1c(CCCl)c(=O)oc2cc(O)cc(O)c12	218 to 220
Cc1nc2c(c(=O)[nH]1)-c1cc(S(=O)(=O)Nc3ccc(C(N)=O)cc3)ccc1CC2	190
Cc1cc(COc2cccc3c2CN(C2CCC(=O)NC2=O)C3=O)ccc1Cl (centres undefined)	217 to 219
COc1ccc2c(Nc3ccc(C)c(O)c3)c(C#N)cnc2c1	> 250
COc1ccc2c(c1)C(Cl)CC1C2C(O)CC2(C)C(O)CCC12 (centres undefined)	150 to 151
CCCc1nn(C)c2c(=O)[nH]c(-c3cc(-c4nccn4C)ccc3OCC)nc12	199 to 202
CNc1nc2c(cc1NC(=O)N1CCN(c3cc(OC)cc(OC)c3)CC1)CCC2	148 to 150
O=Cc1cccnc1Nc1ccccc1F	94
CC(C)(C)CC(=O)c1c(-c2ccc3c(Br)c(OCC(=O)O)ccc3c2)oc2ccccc12	151 to 153
CCCc1ccc2nnc(C(=O)OCC)cc2c1	88 to 89
O=C(O)c1cc2c(s1)-c1ccccc1OC2C1=CCCC=C1 (centres undefined)	258 to 260
O=C1N(Cc2ccccc2)Cc2cnc(Nc3ccc(N4CCCCC4)cn3)nc2N1C1CCCC1	194 to 196
N#Cc1ccc2nc(-c3ccc(Br)o3)cn2c1	212 to 214
CC(C)(C)NC(=O)Nc1nc2nc(N)ncc2cc1-c1c(Cl)ccc(Cl)c1Cl	329 to 330
O=C(Nc1ccc2cc(CN3CCCC3)cnc2c1F)c1ccc(-c2ccc(Cl)cc2)cc1F	208
CCCCc1ncc(/C=C(\Cc2cccs2)C(=O)O)n1Cc1ccc(OCC(=O)O)cc1	192 to 194
COc1ccc2c(c1)nnc1c(C)nc(-c3cc(Cl)ccc3Cl)n12	144 to 147
CCCCCc1cc2c(nc(O)n2CCc2ccccc2)c(N)n1	238 to 240
COc1ccc(C=CC(=O)c2c(OC)cc(OC)cc2OC(=O)CCCC(=O)O)cc1	131 to 132
COc1ccc(C(=O)Nc2cc(-c3c(-c4ccc(F)c(C)c4)nc4cccnn34)ccn2)cc1	222 to 223
COC(=O)N1CC(C(N)=O)C(c2ccc(OC)c(OC3CCCC3)c2)C1 (centres undefined)	130 to 132
Cc1c(NC(=O)c2cc3c(s2)C2CCC3C2)cccc1-c1cn(C)c(=O)c(Nc2ccc(C3C(=O)N(C)CCN3C)cc2)n1 (centres undefined)	178 to 179
CCC1(C)Cc2ccc(C)cc2C1=O (centres undefined)	25.5 to 27
O=C(CN1CCC(Cc2ccccc2)CC1)Nc1ccc2[nH]c(=S)oc2c1	183 to 184
CNn1c(C)nn(C(=O)NC(C)(C)C)c1=O	150

Compound	melting point [°C]
CN(C)c1ncc(C(=O)NCc2ccccc2)c(S)n1	175 to 178
CN1CCN(CC2COc3cc4ncnc(Nc5cccc(Br)c5)c4cc3O2)CC1 (centres undefined)	182 to 189
CNC(=O)c1ccccc1Nc1nc(Nc2ccc3c(c2)N(C)CCN(S(C)(=O)=O)C3)ncc1Cl	200 to 207
COCCON1C(=O)C(c2c(C)cc(C)cc2C)C(=O)C12CCN(N(C)C)CC2 (centres undefined)	108
CC(C)N(C[C@H](O)[C@H](Cc1ccccc1)NC(=O)[C@H](CC(N)=O)NC(=O)c1ccccn1)NC(=O)OC(C)(C)C	101 to 108
Cc1ccc(C)c(C2C(=O)Oc3c2cc(C(C)(C)C)cc3C(C)(C)C)c1 (centres undefined)	93 to 97
CC(C)c1nn(-c2ccccc2)c(-c2ccc(F)cc2)c1CC[C@H]1C[C@H](O)CC(=O)O1 (relative stereo)	157 to 159
CN1N=C(c2ccc3c(c2)N(S(C)(=O)=O)CCO3)CCC1=O	162 to 165
O=c1[nH]c2cc(Cl)ccc2n(C2CCCCC2)c1=O	265 to 266
NC1CCOC1c1ncnc2nc[nH]c12 (centres undefined)	128 to 130
O=[N+]([O-])c1ccccc1Oc1ccc(Cl)cc1Cl	54 to 55
CCS(=O)(=O)N(C)[C@@H]1c2cc([N+](=O)[O-])ccc2OCC[C@H]1O (relative stereo)	133 to 135
CSc1ccc2sc3cc(F)ccc3c(=O)c2c1	135 to 138
COc1ccc(C2=CC(O)CC2)cc1OC1CCCC1 (centres undefined)	105 to 107
CCC(=O)N(C)c1cccc(-c2nc(=O)c3ccccc3s2)n1	201
CCOC(=O)C1=C(N)NC(c2ccccc2)=C(C(=O)O)C1c1ccccc1 (centres undefined)	183
CN1CCN(c2ccc(Nc3ncc4cc(C#N)c(=O)n(C5CCCC5)c4n3)cc2)CC1	290 to 292
CC1=C(C(=O)O)N2C(=O)C(NC(=O)Cc3ccc(CCl)cc3)C2SC1 (centres undefined)	145 to 146
CC(O)c1cc(-c2cccc(F)c2)ccc1N (centres undefined)	136 to 137
O=C(NN1CCOCC1)OCCCCCCOC(=O)NN1CCOCC1	197 to 199
CC(Cl)(Cl)C(NC(=O)c1cccc(Cl)c1)NC(=NC#N)Nc1cccc(F)c1 (centres undefined)	179 to 181
CN(CC(=O)O)C(=O)CCSC(=O)c1ccccc1	139 to 140
N#CNC(=N)NCCN1CCC(C2(c3ccc(F)cc3)OCCO2)CC1	161 to 163
O[C@H]1c2cc(Oc3ccccn3)ccc2OC[C@H]1Cc1cccnc1 (relative stereo)	67 to 68
